Measurements taken from PubChem BioAssay (NCI).
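Method: 48-hour compound exposure of cells in 96-well plates, five concentrations, linear interpolation of endpoints. The concentration for full growth arrest is given as TGI.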

How the values were obtained:
Test in all cases: growth of human tumour cells (NCI), 48 h
786-0 renal = tested on: 786-0 renal
A498 renal = tested on: A498 renal
A549 NSCLC = tested on: A549 NSCLC
ACHN renal = tested on: ACHN renal
CAKI-1 renal = tested on: CAKI-1 renal
CCRF-CEM leukemia = tested on: CCRF-CEM leukemia
COLO 205 colon = tested on: COLO 205 colon
DLD-1 colon = tested on: DLD-1 colon
EKVX NSCLC = tested on: EKVX NSCLC
HCC-2998 colon = tested on: HCC-2998 colon
HCT-116 colon = tested on: HCT-116 colon
HL-60(TB) leukemia = tested on: HL-60(TB) leukemia
HOP-62 NSCLC = tested on: HOP-62 NSCLC
HOP-92 NSCLC = tested on: HOP-92 NSCLC
HT29 colon = tested on: HT29 colon
K-562 leukemia = tested on: K-562 leukemia
KM12 colon = tested on: KM12 colon
KM20L2 colon = tested on: KM20L2 colon
LXFL 529 NSCLC = tested on: LXFL 529 NSCLC
M14 melanoma = tested on: M14 melanoma
M19-MEL melanoma = tested on: M19-MEL melanoma
MALME-3M melanoma = tested on: MALME-3M melanoma
MOLT-4 leukemia = tested on: MOLT-4 leukemia
NCI-H226 lung = tested on: NCI-H226 lung
NCI-H23 lung = tested on: NCI-H23 lung
NCI-H460 lung = tested on: NCI-H460 lung
NCI-H522 lung = tested on: NCI-H522 lung
OVCAR-3 ovarian = tested on: OVCAR-3 ovarian
OVCAR-4 ovarian = tested on: OVCAR-4 ovarian
OVCAR-5 ovarian = tested on: OVCAR-5 ovarian
OVCAR-8 ovarian = tested on: OVCAR-8 ovarian
RPMI-8226 leukemia = tested on: RPMI-8226 leukemia
SF-268 CNS = tested on: SF-268 CNS
SF-295 CNS = tested on: SF-295 CNS
SK-MEL-2 melanoma = tested on: SK-MEL-2 melanoma
SK-MEL-28 melanoma = tested on: SK-MEL-28 melanoma
SK-OV-3 ovarian = tested on: SK-OV-3 ovarian
SN12C renal = tested on: SN12C renal
SNB-19 CNS = tested on: SNB-19 CNS
SNB-75 CNS = tested on: SNB-75 CNS
SNB-78 CNS = tested on: SNB-78 CNS
SR leukemia = tested on: SR leukemia
SW-620 colon = tested on: SW-620 colon
TK-10 renal = tested on: TK-10 renal
U251 CNS = tested on: U251 CNS
UACC-257 melanoma = tested on: UACC-257 melanoma
UACC-62 melanoma = tested on: UACC-62 melanoma
UO-31 renal = tested on: UO-31 renal
XF 498 CNS = tested on: XF 498 CNS
DMS 114 small cell lung = tested on: DMS 114 small cell lung
DMS 273 small cell lung = tested on: DMS 273 small cell lung
HCT-15 colon = tested on: HCT-15 colon
IGROV1 ovarian = tested on: IGROV1 ovarian
SF-539 CNS = tested on: SF-539 CNS
SK-MEL-5 melanoma = tested on: SK-MEL-5 melanoma
LOX IMVI melanoma = tested on: LOX IMVI melanoma

Measured: TGI

COc1cc(Br)c(CC2NCCc3cc(OC)c(OC)cc32)cc1OC (stereo not given)
not listed: DMS 114 small cell lung | DMS 273 small cell lung | HCT-15 colon | IGROV1 ovarian | SF-539 CNS | SK-MEL-5 melanoma | LOX IMVI melanoma
> 100 µM: all other assays above

CCOC(=O)Cn1c(=O)n(C)c(=O)c2[nH]cnc21
not listed: HCC-2998 colon | HL-60(TB) leukemia | KM20L2 colon | NCI-H226 lung | OVCAR-4 ovarian | OVCAR-5 ovarian | SF-295 CNS | UACC-257 melanoma | LOX IMVI melanoma
> 100 µM: all other assays above

CN=C(NC#N)N(Cc1ccccc1)Cc1ccccc1
not listed: K-562 leukemia | DMS 114 small cell lung
> 100 µM: all other assays above
